Assay results from US9056096B2, “Hyaluronic acid decomposition-promoting factor and inhibitor thereof” (Kao Corporation, priority 2010, dated 2015).

B1: IL-1α: cytokine, RA-related inflammatory mediator (protein, UniProt P01583 113-271, looked up)
Interleukin-1 alpha: SAPFSFLSNVKYNFMRIIKYEFILNDALNQSIIRANDQYLTAAALHNLDEAVKFDMGAYKSSKDDAKITVILRISKTQLYVTAQDEDQPVLLKEMPEIPKTITGSETNLLFFWETHGTKNYFTSVAHPNLFIATKQDYWVCLAGGPPSITDFQILENQA

Assays:
[1] = test system: KIAA1199/HEK293 cells; test: Inhibitor experiment: [3H]HA decomposition in HEK293 cells stably expressing KIAA1199; assay type: cell-based, human; details: preliminary treatment with inhibitor 3 hours, then 6 hours with [3H]HA
Experimental: Cells were cultured in a medium containing [^3H]HA (40,000 dpm/mL) to confluent. […] The medium was eluted with 0.5% NaCl at 0.65 mL/min, and fractions (each 2.55 mL) were collected. The radioactivity of each fraction was measured.
Cells were cultured in a medium containing G418, and stable transformants were selected.
Cells were incubated for 3 hours with an inhibitor at a predetermined concentration and then incubated for 6 hours with [^3H]HA in the presence of the inhibitor.
In order to investigate the hyaluronic acid decomposition mechanism by the mediation of KIAA1199, HEK293 cells (KIAA1199/HEK293), in which KIAA1199 is consistently expressed, were established.

[2] = test system: cultured normal human skin fibroblasts (Detroit551); test: [3H]HA decomposition assay using cultured normal human skin fibroblasts; assay type: cell-based; details: for decomposition of hyaluronic acid by cultured fibroblasts: exogenously added [3H]HA, substance added to the culture
Experimental: Normal human skin fibroblasts (Detroit 551, ATCC (American Type Culture Collection), HS-27, NHDF) were cultured in an Eagle's minimal essential medium (MEM) (MP Biomedicals, Solon, Ohio) supplemented with essential amino acids, 1 mM sodium pyruvate, and 10% (vol/vol) fetal bovine serum (FBS) (JRH Biosciences, Kansas). HEK293, COS-7 cells, and human synovial fibroblasts (TOYOBO) were maintained in a Dulbecco's modified Eagle's medium (Sigma) containing 10% fetal bovine serum, 100-units/mL penicillin, and 100-μg/mL streptomycin. Culturing was performed at 37° C. in a humidified atmosphere containing 5% CO2.
[^3H]-labeled hyaluronic acid ([^3H]HA) was prepared though a slightly modified method of Underhill, Toole, et al. (C. B. Underhill and B. P. Toole, Binding of hyaluronate to the surface of cultured cells. J. Cell Biol. 82 (1979) 475-84). Specifically, confluent Detroit 551 fibroblasts were incubated with D-[1,6-^3H(N)]glucosamine hydrochloride (10-μCi/mL). A conditioned medium was pooled, and the incubated cells were digested with pronase (0.3 mg/mL) and precipitated in ethanol. The formed pellets were suspended in water and re-precipitated with 1.5% cetylpyridinium chloride and 0.03M NaCl. The thus-formed pellets were dissolved in 0.1% cetylpyridinium chloride and 0.4M NaCl and re-precipitated again in ethanol. The thus-formed pellets were suspended in 5 mM phosphate buffer (pH: 7.5), and the suspension was applied to a Sepharose CL-2B column (10×600 mm) equilibrated with 0.5% NaCl. Vo fractions were collected, and the product was precipitated in ethanol. Finally, the product was dissolved in 5 mM phosphate buffer (pH: 7.5).
Cells were cultured in a medium containing [^3H]HA (40,000 dpm/mL) to confluent. After incubation, the medium was removed and applied to a Sepharose CL-2B column (10×600 mm). The medium was eluted with 0.5% NaCl at 0.65 mL/min, and fractions (each 2.55 mL) were collected. The radioactivity of each fraction was measured.
siRNAs (TT2 cohesive end, non-modified) each having 25 nucleotides with respect to KIAA1199, HYAL2, CD44, and a negative control were purchased from Invitrogen (Carlsbad, Calif.). Each siRNA was incorporated by use of Lipofectamine RNAiMAX (Invitrogen, Carlsbad, Calif.).

[3] = test system: KIAA1199 mRNA; test: Induction of KIAA1199 mRNA expression in cultured RA synovial cells; assay type: cell-based, human; details: inflammatory mediator added to cultured RA synovial cells
Experimental: (§1) Western blotting was performed through a standard method. In real-time PCR, total RNA was separated by use of RNeasy (Qiagen), and cDNA was synthesized by means of High Capacity cDNA Archive kit (Applied Biosystems, Foster City, Calif.).
Meanwhile, PGE2 (i.e., an inflammatory mediator) and several cytokines such as IL-1, IL-6, and TNF-α are present at high levels in synovial fluid of RA patients. Therefore, whether or not expression of KIAA1199 in RA synovial cells is induced by such an inflammatory mediator was investigated.

[4] = test system: KIAA1199 mRNA; details: stimulation with histamine
Experimental: as §1, with “Calif.). Real-time PCR was performed through TaqMan (registered trademark) technique and by means of an apparatus ABI Prism 7700 (Applied Biosystems, Foster City, Calif.).” for “Calif.).”

[5] = after stimulation with histamine

Row | Molecule | decomposition of hyaluronic acid in KIAA1199/HEK293 cells [1] | expression of KIAA1199 mRNA in RA synovial cells [3] | further results
1 | O=C(O)CN(CCN(CC(=O)O)CC(=O)O)CC(=O)O [EDTA] | inhibited |  | 
2 | CC[C@@]1([C@@H]2O[C@@H]([C@H]3O[C@@](O)(CO)[C@H](C)C[C@@H]3C)C[C@@H]2C)CC[C@H]([C@]2(C)CC[C@]3(C[C@H](O)[C@@H](C)[C@@H]([C@@H](C)[C@@H](OC)[C@H](C)C(=O)O)O3)O2)O1 [monensin] | inhibited |  | 
3 | TGF-[3]: TGF-β1, down-regulates hyaluronic acid decomposition in fibroblasts |  |  | decomposition of hyaluronic acid by cultured fibroblasts [2]: down-regulated
4 | IL-β: cytokine, RA-related inflammatory mediator (probably IL-1β) |  | stimulate expression | 
5 | IL-6: cytokine, RA-related inflammatory mediator |  | stimulate expression | 
6 | CO/C1=C\C(C)=C\[C@@H](C)[C@@H](O)[C@@H](C)C/C(C)=C/C=C/[C@H](OC)[C@@H]([C@@H](C)[C@@H](O)[C@H](C)[C@@]2(O)C[C@@H](O)[C@H](C)[C@@H](C(C)C)O2)OC1=O [bafilomycin A1] | inhibited |  | 
7 | CN(C)CCCN1c2ccccc2Sc2ccc(Cl)cc21 [chlorpromazine] | inhibited |  | 
8 | O=c1cc(-c2ccc(O)c(O)c2)oc2c([C@@H]3O[C@H](CO)[C@@H](O)[C@H](O)[C@H]3O)c(O)cc(O)c12 [orientin] | inhibited |  | 
9 | NCCc1c[nH]cn1 [histamine] |  |  | Vmax of hyaluronic acid decomposition by cells [2, 5]: 1,370 μg/10^5 cells/3 days; apparent Km of hyaluronic acid decomposition by cells [2, 5]: 1,500 μg/mL; increase of Vmax of hyaluronic acid decomposition ([2]; after stimulation with histamine, versus unstimulated cells): 3.7 times; decomposition of hyaluronic acid by cultured fibroblasts [2]: up-regulated; increase in expression level of KIAA1199 mRNA [4]: 3.7 times
10 | heparin |  |  | decomposition of hyaluronic acid by cultured fibroblasts [2]: inhibited
11 | CCCCC[C@H](O)/C=C/[C@H]1[C@H](O)CC(=O)[C@@H]1C/C=C\CCCC(=O)O [PGE2, prostaglandin E2] |  | stimulate expression | 
12 | CCN1C(=O)C=CC1=O [N-ethylmaleimide] | inhibited |  | 
13 | B1 |  | stimulate expression | 
